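Exposure lasted 48 hours, with cells grown in 96-well plates and compounds tested at five concentrations. GI50 marks 50% less growth.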 Calls of active or inactive are those of the source. Cut-off read from the data, not from the text of the source: active = GI50 up to about 1.1 µM and inactive = higher.
What was measured:
Assay in all cases: growth of human tumour cells (NCI), 48 h
DLD-1 = test system: DLD-1
XF498 = test system: XF498
DMS-114 = test system: DMS-114
HOP-18 = test system: HOP-18
M19-MEL = test system: M19-MEL
DMS-273 = test system: DMS-273
RXF 631 = test system: RXF 631
LXFL 529 = test system: LXFL 529
KM-20L2 = test system: KM-20L2

Compound | GI50 (DLD-1) | GI50 (XF498) | GI50 (DMS-114) | GI50 (HOP-18) | GI50 (M19-MEL) | GI50 (DMS-273) | GI50 (RXF 631) | GI50 (LXFL 529) | GI50 (KM-20L2)
OC[C@@H]1CC#C/C=C\C#CC[C@@H]1CO | > 100 µM (inactive) | 0.471 µM (active) | > 100 µM (inactive) | > 100 µM (inactive) | > 100 µM (inactive) |  |  |  | 
CCOc1c(Cc2ccccc2)c(=O)n2c3ccccc3n3c(=O)n(C)c(=O)c1c23 | > 100 µM (inactive) | > 100 µM (inactive) | > 100 µM (inactive) | > 100 µM (inactive) | > 100 µM (inactive) | > 100 µM (inactive) | > 100 µM (inactive) | > 100 µM (inactive) | 
Cc1ccc(NC(=O)SCCC(=O)O)cc1NC(=O)SCCC(=O)O | > 10 µM (inactive) |  | > 100 µM (inactive) |  |  | > 10 µM (inactive) |  | > 100 µM (inactive) | > 100 µM (inactive)
Cn1c(=O)c2nc(-c3ccc(Cl)cc3)oc2n(C)c1=O | > 100 µM (inactive) | > 100 µM (inactive) | > 100 µM (inactive) | > 100 µM (inactive) | > 100 µM (inactive) | > 100 µM (inactive) |  | > 100 µM (inactive) | > 100 µM (inactive)
Cc1ccc(Oc2ccccc2N)cc1 | 35 µM (inactive) | 17.8 µM (inactive) | 17.4 µM (inactive) | > 100 µM (inactive) |  | 32 µM (inactive) | > 100 µM (inactive) | 15.7 µM (inactive) | 12.7 µM (inactive)
CCCCCCCCCOC(=S)NCCCCC | 35.6 µM (inactive) |  | 21.7 µM (inactive) | 33.4 µM (inactive) | 39.3 µM (inactive) | 25.5 µM (inactive) |  | 33.3 µM (inactive) | 23.8 µM (inactive)
CCCCCCCC/C=C1\CCC(CN2CCOCC2)C1=O (stereo unspecified) | 2.8 µM (inactive) | 14.2 µM (inactive) | 6.41 µM (inactive) | 13.1 µM (inactive) | 8.65 µM (inactive) |  | 8.95 µM (inactive) | 4.54 µM (inactive) | 16.3 µM (inactive)
CCOC(=O)/C(=C/c1ccc(OC)c(OC)c1)C(=O)c1ccccc1 | 15.4 µM (inactive) | 14.9 µM (inactive) | 15.2 µM (inactive) |  | 19 µM (inactive) |  |  | 12.2 µM (inactive) | 18.4 µM (inactive)
CC[C@](C)(O)C(=O)O[C@H]1C(=O)O[C@@H]2C[C@H]3C(C)=CC(=O)[C@@H](O)[C@]3(C)[C@H]3[C@@]4(O)OC[C@]32[C@@H]1[C@@H](C)[C@H]4O [GLAUCARUBINONE] |  |  |  |  | 0.05 µM (active) | 0.05 µM (active) | 0.543 µM (active) | < 0.0111 µM (active) | 
CN(C)CC1CCCC/C1=N/OC(=O)c1ccc(Cl)cc1 (stereo unspecified) | > 100 µM (inactive) | > 100 µM (inactive) |  | > 100 µM (inactive) | > 100 µM (inactive) | > 100 µM (inactive) |  | > 100 µM (inactive) | > 100 µM (inactive)
C=CCNC(=S)N1c2ccccc2NC(=O)CC1C (stereo unspecified) |  | > 100 µM (inactive) | > 100 µM (inactive) |  | > 100 µM (inactive) | > 100 µM (inactive) |  | > 100 µM (inactive) | > 100 µM (inactive)
CC1C(=O)N(C)C2(CO)C(=O)O[C@H](C)C12O (stereo partly specified) | > 100 µM (inactive) |  | > 100 µM (inactive) | > 100 µM (inactive) | > 100 µM (inactive) |  |  |  | 
C/N=C(\SC)N(C)c1nc(=[N+](C)C)ss1.[O-][Cl+3]([O-])([O-])[O-] |  | 32.6 µM (inactive) |  |  |  | > 100 µM (inactive) | 2.28 µM (inactive) | 58.6 µM (inactive) | 
Cc1ccc(S(=O)OC2c3ccccc3Cc3ccccc32)cc1 (stereo unspecified) | 22.9 µM (inactive) | 15.2 µM (inactive) | 20.2 µM (inactive) | 24.8 µM (inactive) | 21.1 µM (inactive) | 17.5 µM (inactive) | 17.2 µM (inactive) | 16.4 µM (inactive) | 19.9 µM (inactive)
Cc1[nH]c2ccccc2c1CC/C(=N\Nc1ccccc1)c1ccccc1 | > 100 µM (inactive) | 78.2 µM (inactive) |  |  |  | > 100 µM (inactive) | > 100 µM (inactive) |  | > 100 µM (inactive)
Cc1c(Cl)cccc1NC(=O)CC1C(=O)Nc2ccccc2S1(=O)=O (stereo unspecified) | 15.1 µM (inactive) | 15.2 µM (inactive) | 16.5 µM (inactive) |  | 20.4 µM (inactive) | 7.69 µM (inactive) |  | 15.3 µM (inactive) | 22.4 µM (inactive)
O=c1oc2c3ccc4ccccc4c3n(CCN3CCCCC3)c2c2ccccc12 | 30.2 µM (inactive) | 21.4 µM (inactive) | > 76 µM (inactive) | > 100 µM (inactive) | 25.6 µM (inactive) | 38.3 µM (inactive) | 24.6 µM (inactive) | 43.9 µM (inactive) | > 61 µM (inactive)
CC(C)c1cccc(C(C)C)c1NC(=O)C(=O)C1SC(=S)NC1=O (stereo unspecified) | > 100 µM (inactive) | > 100 µM (inactive) |  | > 100 µM (inactive) | > 100 µM (inactive) | > 100 µM (inactive) | > 100 µM (inactive) | > 100 µM (inactive) | > 100 µM (inactive)
O=c1cccccc1NCCCCCCCNc1cccccc1=O | 42.6 µM (inactive) | 10.6 µM (inactive) |  |  | 24 µM (inactive) | 33.3 µM (inactive) | 8.02 µM (inactive) | 16.9 µM (inactive) | 38.1 µM (inactive)
COC(=O)NN1C(C)=C(C(=O)OC)C2(C#N)C(C(=O)OC)=C(C)N(NC(=O)OC)C12N (stereo unspecified) | > 100 µM (inactive) | > 100 µM (inactive) | > 100 µM (inactive) | > 100 µM (inactive) | > 100 µM (inactive) | > 100 µM (inactive) | > 100 µM (inactive) | > 100 µM (inactive) | > 100 µM (inactive)
C#CC[C@]12CC(=O)CC[C@H]1CC(=O)C2 | > 100 µM (inactive) |  |  | > 100 µM (inactive) | > 100 µM (inactive) | > 100 µM (inactive) | > 100 µM (inactive) | > 100 µM (inactive) | > 100 µM (inactive)
COc1ccc(/C=C2\CCC(CCN3CCOCC3)C2=O)cc1 (stereo unspecified) | > 100 µM (inactive) | > 100 µM (inactive) | > 100 µM (inactive) | > 100 µM (inactive) | > 100 µM (inactive) | > 100 µM (inactive) |  | > 100 µM (inactive) | > 100 µM (inactive)
Oc1cc(-c2cccc(Br)c2)nc2cc3c(cc12)OCO3 | 3.16 µM (inactive) | 4.16 µM (inactive) | 2.85 µM (inactive) | 15.7 µM (inactive) | 4.37 µM (inactive) | 4.37 µM (inactive) |  | 2.26 µM (inactive) | 

— ChEMBL document CHEMBL1201862, “PubChem BioAssay data set” (2004)
